Laboratory results published in US20080242683A1, “Organic Compounds” (priority 2005, published 2008).
Counter-ions that a name gives are not always drawn.

target: adenosine A2A receptor (Homo sapiens, UniProt P29274); assay: adenosine A2A receptor agonist assay (method of Murphree et al.); assay type: binding; details: Mol Pharmacol 61, 455-462 (2002)
Text: Compounds of formula (I) and their pharmaceutically acceptable salts are useful as pharmaceuticals. In particular, they activate the adenosine A2A receptor, i.e., they act as A2A receptor agonists.

adenosine A2A receptor, sequence (P29274 whole entry): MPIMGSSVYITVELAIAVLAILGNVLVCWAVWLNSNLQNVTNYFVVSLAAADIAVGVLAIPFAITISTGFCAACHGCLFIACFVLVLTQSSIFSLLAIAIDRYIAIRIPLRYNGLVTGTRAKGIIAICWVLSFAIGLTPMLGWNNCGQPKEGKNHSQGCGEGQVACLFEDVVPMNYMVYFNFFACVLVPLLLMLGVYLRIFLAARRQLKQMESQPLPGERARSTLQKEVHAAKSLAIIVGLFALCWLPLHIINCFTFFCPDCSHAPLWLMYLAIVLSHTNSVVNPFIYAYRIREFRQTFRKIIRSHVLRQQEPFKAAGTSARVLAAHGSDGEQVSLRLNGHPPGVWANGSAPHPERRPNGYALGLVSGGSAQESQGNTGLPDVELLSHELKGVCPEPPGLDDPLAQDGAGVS

Ki	SMILES
610 nM	OC[C@H]1O[C@@H](n2cnc3c(NCC(c4ccccc4)c4ccccc4)nc(N4CC[C@H](c5ccc(F)cc5)C4)nc32)[C@H](O)[C@@H]1O [Example 2, (2R,3R,4S,5R)-2-{6-(2,2-diphenyl-ethylamino)-2-[(R)-3-(4-fluoro-phenyl)-pyrrolidin-1-yl]-purin-9-yl}-5-hydroxymethyl-tetrahydro-furan-3,4-diol trifluoroacetate]
190 nM	N[C@@H]1CCN(c2nc(NCC(c3ccccc3)c3ccccc3)c3ncn([C@@H]4O[C@H](CO)[C@@H](O)[C@H]4O)c3n2)C1 [Example 7, (2R,3R,4S,5R)-2-[2-((R)-3-Amino-pyrrolidin-1-yl)-6-(2,2-diphenyl-ethylamino)-purin-9-yl]-5-hydroxymethyl-tetrahydro-furan-3,4-diol trifluoroacetate]
160 nM	O=C(NC1CCN(c2ccccn2)CC1)N[C@@H]1CCN(c2nc(NCC(c3ccccc3)c3ccccc3)c3ncn([C@@H]4O[C@H](CO)[C@@H](O)[C@H]4O)c3n2)C1 [Example 9, 1-{(R)-1-[9-((2R,3R,4S,5R)-3,4-Dihydroxy-5-hydroxymethyl-tetrahydro-furan-2-yl)-6-(2,2-diphenyl-ethylamino)-9H-purin-2-yl]-pyrrolidin-3-yl}-3-(3,4,5,6-tetrahydro-2H-[1,2′]bipyridinyl-4-yl)-urea trifluoroacetate]
12 nM	O=C(N[C@@H]1CCNC1)N[C@@H]1CCN(c2nc(NCC(c3ccccc3)c3ccccc3)c3ncn([C@@H]4O[C@H](CO)[C@@H](O)[C@H]4O)c3n2)C1 [Example 11, 1-{(R)-1-[9-((2R,3R,4S,5R)-3,4-Dihydroxy-5-hydroxymethyl-tetrahydro-furan-2-yl)-6-(2,2-diphenyl-ethylamino)-9H-purin-2-yl]-pyrrolidin-3-yl}-3-(R)-pyrrolidin-3-yl-urea trifluoroacetate]
54 nM	OC[C@H]1O[C@@H](n2cnc3c(NCC(c4ccccc4)c4ccccc4)nc(N4CC[C@@H](O)C4)nc32)[C@H](O)[C@@H]1O [Example 13, (2R,3R,4S,5R)-2-[6-(2,2-diphenyl-ethylamino)-2-((R)-3-hydroxy-pyrrolidin-1-yl)-purin-9-yl]-5-hydroxymethyl-tetrahydro-furan-3,4-diol]
0.5 nM	CN(C)[C@@H]1CCN(c2nc(NCC(c3ccccc3)c3ccccc3)c3ncn([C@@H]4O[C@H](CO)[C@@H](O)[C@H]4O)c3n2)C1 [Example 22, (2R,3R,4S,5R)-2-[2-((R)-3-dimethylamino-pyrrolidin-1-yl)-6-(2,2-diphenyl-ethylamino)-purin-9-yl]-5-hydroxymethyl-tetrahydro-furan-3,4-diol trifluoroacetate]
59 nM	O=C(N[C@@H]1CCN(C(=O)NC2CCN(C(=O)OCc3ccccc3)CC2)C1)N[C@@H]1CCN(c2nc(NCC(c3ccccc3)c3ccccc3)c3ncn([C@@H]4O[C@H](CO)[C@@H](O)[C@H]4O)c3n2)C1 [Example 24, 4-{[(R)-3-(3-{(R)-1-[9-((2R,3R,4S,5R)-3,4-Dihydroxy-5-hydroxymethyl-tetrahydro-furan-2-yl)-6-(2,2-diphenyl-ethylamino)-9H-purin-2-yl]-pyrrolidine-3-yl}-ureido)-pyrrolidine-1-carbonyl]-amino}-piperidine-1-carboxylic acid benzyl ester trifluoroacetate]
2 nM	CCc1cc([C@H]2O[C@@H](n3cnc4c(N[C@H](CO)Cc5ccccc5)nc(N5CC[C@@H](N6CCCC6)C5)nc43)[C@H](O)[C@@H]2O)on1 [Example 65, (2R,3R,4S,5S)-2-[(R)-2-[1,3′]Bipyrrolidinyl-1′-yl-6-((S)-1-hydroxymethyl-2-phenyl-ethylamino)-purin-9-yl]-5-(3-ethyl-isoxazol-5-yl)-tetrahydro-furan-3,4-diol]
6 nM	CCn1nnc(C2OC(n3cnc4c(NCC(c5ccc(O)cc5)c5ccc(O)cc5)nc(N5CCC(NC(=O)c6ccc(N7CCOCC7)nc6)C5)nc43)C(O)C2O)n1 [Example 77, N—((R)-1-{6-[2,2-bis-(4-Hydroxy-phenyl)-ethylamino]-g-[(2R,3R,4S,5R)-5-(2-ethyl-2H-tetrazol-5-yl)-3,4-dihydroxy-tetrahydro-furan-2-yl]-9H-purin-2-yl}-pyrrolidin-3-yl)-6-morpholin-4-yl-nicotinamide trifluoroacetate]
5 nM	CCn1nnc([C@H]2O[C@@H](n3cnc4c(NCCc5ccc(S(N)(=O)=O)cc5)nc(N5CC[C@@H](NC(=O)N[C@@H]6CCNC6)C5)nc43)[C@H](O)[C@@H]2O)n1 [Example 108, 4-(2-{9-[(2R,3R,4S,5R)-5-(2-Ethyl-2H-tetrazol-5-yl)-3,4-dihydroxy-tetrahydro-furan-2-yl]-2-[(R)-3-((R)-3-pyrrolidin-3-ylureido)-pyrrolidin-1-yl]-9H-purin-6-ylamino}-ethyl)-benzenesulfonamide trifluoroacetate]
4 nM	CCn1nnc([C@H]2O[C@@H](n3cnc4c(NCC(c5ccccc5)c5ccccc5)nc(N5CC[C@@H](NC(=NCc6ccccn6)NC#N)C5)nc43)[C@H](O)[C@@H]2O)n1 [Example 122, N—((R)-1-{6-(2,2-Diphenyl-ethylamino)-9-[(2R,3R,4S,5R)-5-(2-ethyl-2H-tetrazol-5-yl)-3,4-dihydroxy-tetrahydro-furan-2-yl]-9H-purin-2-yl}-pyrrolidin-3-yl)-N′-cyano-N″-pyridin-2-ylmethyl-guanidine]
